The test deals with IL-1b. The test is described as follows: Human Monocyte IL-1b Assay. Format: cell-based. To be noted: fresh human whole blood, compound 0.5 h, 100 ng/mL LPS 3.5 h at 37° C., 5 mM ATP 45 min, IL-1b in supernatant by ELISA. Here is the method:
Example 46: Human Monocyte IL-1b Assay
Serially diluted testing compounds were incubated with […] of fresh human whole blood for 0.5 hours. Cells were primed with 100 ng/mL lipopolysaccharide (LPS) for 3.5 hours at 37° C. followed by stimulation with 5 mM ATP for an additional 45 minutes. The concentration of IL-1b concentration in the supernatant was determined with commercially available ELISA kits. Negative controls are wells without stimulation, while positive controls are wells with stimulation but only DMSO without compounds added. After background subtraction, compound treatment wells were then normalized to the positive controls for IC50 calculations.
A general note: ELISA stands for enzyme-linked immunosorbent assay.

A word on the IC50: it is the concentration needed to halve the response being measured. A high value points to weaker potency. For the molecule `Cc1cc(C(=O)C2CCCN(C)C2)nnc1-c1ccc(C(F)(F)F)cc1O` (centres unmarked) [Compound 14, (6-(2-hydroxy-4-(trifluoromethyl)phenyl)-5-methylpyridazin-3-yl)(1-methylpiperidin-3-yl)methanone], the IC50 (Homo sapiens, Monocyte) was under 500 nM. Still for that read-out and setting: the figure for `Cc1cc(C(O)C23CC(CN(C)C2)C3)nnc1-c1ccc(C(F)(F)F)cc1O` (centres unmarked) [Compound 35, 2-(6-(hydroxy(3-methyl-3-azabicyclo[3.1.1]heptan-1-yl)methyl)-4-methylpyridazin-3-yl)-5-(trifluoromethyl)phenol] is 500 to 3000 nM. For the setting “Monocyte”, `Cc1cc(C(O)C2CCCCN(C)C2)nnc1-c1ccc(C(F)(F)F)cc1O` (centres unmarked) [Compound 32, 2-(6-(hydroxy(1-methylazepan-3-yl)methyl)-4-methylpyridazin-3-yl)-5-(trifluoromethyl)phenol] came in with a concentration for half-maximal inhibition (IC50) of under 500 nM. `Cc1cc([C@H](O)[C@]2(C)CCCN(C)C2)nnc1-c1ccc(C(F)(F)F)cc1O` [Compound 27A, 2-(6-((R)-((R)-1,3-dimethylpiperidin-3-yl)(hydroxy)methyl)-4-methylpyridazin-3-yl)-5-(trifluoromethyl)phenol]: the IC50 (Homo sapiens, Monocyte) was 500 to 3000 nM. The same measure, in the same setting: the figure for `Cc1cc(C(O)C2CCC3CCCN3C2)nnc1-c1ccc(C(F)(F)F)cc1O` (centres unmarked) [Compound 38, 2-(6-(hydroxy(octahydroindolizin-6-yl)methyl)-4-methylpyridazin-3-yl)-5-(trifluoromethyl)phenol] is 500 to 3000 nM; for `Cc1cc(C(O)[C@@H]2CCCN(C)C2)nnc1-c1cc(F)c(C(F)(F)F)cc1O` (stereo partly drawn) [Compound 42, 4-fluoro-2-(6-(hydroxy((R)-1-methylpiperidin-3-yl)methyl)-4-methylpyridazin-3-yl)-5-(trifluoromethyl)phenol] it is under 500 nM; for `Cc1cc([C@H](O)C2CN3CCC2CC3)nnc1-c1ccc(C(F)(F)F)cc1O` (stereo partly drawn) [Compound 28A, 2-(6-((1R)-hydroxy(quinuclidin-3-yl)methyl)-4-methylpyridazin-3-yl)-5-(trifluoromethyl)phenol] it is under 500 nM. As to `Cc1cc(O)c(-c2ccc(CC3CCCN(C)C3)nn2)c(F)c1` (centres unmarked) [Compound 7, 3-fluoro-5-methyl-2-(6-((1-methylpiperidin-3-yl)methyl)pyridazin-3-yl)phenol], the IC50 (Homo sapiens, Monocyte) is under 500 nM. On the same count and under the same terms, the figure for `Cc1cc(O)c(-c2ccc(C(O)C3CCCN(C)C3)nn2)c(F)c1` (centres unmarked) [Compound 8, 3-fluoro-2-(6-(hydroxy(1-methylpiperidin-3-yl)methyl)pyridazin-3-yl)-5-methylphenol] is under 500 nM; for `Cc1cc([C@H](O)[C@@H]2CCCNC2)nnc1-c1ccc(C(F)(F)F)cc1O` [Compound 40, 2-(6-((R)-hydroxy((R)-piperidin-3-yl)methyl)-4-methylpyridazin-3-yl)-5-(trifluoromethyl)phenol] it is under 500 nM; for `Cc1cc([C@H](O)[C@@H]2CCCN(C)C2)nnc1-c1ccc(C(F)(F)F)cc1O` [Compound 17B, 2-(6-((R)-hydroxy((R)-1-methylpiperidin-3-yl)methyl)-4-methylpyridazin-3-yl)-5-(trifluoromethyl)phenol] it is under 500 nM.

For the molecule `Cc1cc(C(O)C2CCC3CCC2N3C)nnc1-c1ccc(C(F)(F)F)cc1O` (centres unmarked) [Compound 34, 2-(6-(hydroxy(8-methyl-8-azabicyclo[3.2.1]octan-2-yl)methyl)-4-methylpyridazin-3-yl)-5-(trifluoromethyl)phenol], under “Homo sapiens, Monocyte”, the IC50 was under 500 nM.

Turning to `CN1CCC(=O)C(C(O)c2ccc(-c3ccc(C(F)(F)F)cc3O)nn2)C1` (centres unmarked) [Compound 23, 3-(hydroxy(6-(2-hydroxy-4-(trifluoromethyl)phenyl)pyridazin-3-yl)methyl)-1-methylpiperidin-4-one], the IC50 (Homo sapiens, Monocyte) is 3000 to 10000 nM. On the same count and under the same terms, the figure for `Cc1cc(C(C)(O)C2CCCN(C)C2)nnc1-c1ccc(C(F)(F)F)cc1O` (centres unmarked) [Compound 15, 2-(6-(1-hydroxy-1-(1-methylpiperidin-3-yl)ethyl)-4-methylpyridazin-3-yl)-5-(trifluoromethyl)phenol] is under 500 nM. Consider `Cc1cc(C(O)C23CCCN(CC2)C3)nnc1-c1ccc(C(F)(F)F)cc1O` (centres unmarked) [Compound 29, 2-(6-((1-azabicyclo[3.2.1]octan-5-yl)(hydroxy)methyl)-4-methylpyridazin-3-yl)-5-(trifluoromethyl)phenol], for which, where the note is “Monocyte”, the IC50 lay within 500 to 3000 nM. `Cc1cc(C(O)c2cccnc2)nnc1-c1ccc(C(F)(F)F)cc1O` (centres unmarked) [Compound 10, 2-(6-(hydroxy(pyridin-3-yl)methyl)-4-methylpyridazin-3-yl)-5-(trifluoromethyl)phenol] showed an IC50 (Homo sapiens, Monocyte) of 3000 to 10000 nM. On the same count and under the same terms, with `COc1cc(C(F)(F)F)ccc1-c1nnc(C(O)C2CN(C)C2)cc1C` (centres unmarked) [Compound 30, (6-(2-methoxy-4-(trifluoromethyl)phenyl)-5-methylpyridazin-3-yl)(1-methylazetidin-3-yl)methanol] the figure was 3000 to 10000 nM. As for `Cc1cc(C(O)C2CC3CC2N(C)C3)nnc1-c1ccc(C(F)(F)F)cc1O` (centres unmarked) [Compound 36, 2-(6-(hydroxy(2-methyl-2-azabicyclo[2.2.1]heptan-6-yl)methyl)-4-methylpyridazin-3-yl)-5-(trifluoromethyl)phenol], the IC50 (Monocyte) was under 500 nM. With `Cc1cc([C@H](O)[C@@H]2CCCN(C(C)C)C2)nnc1-c1ccc(C(F)(F)F)cc1O` [Compound 41, 2-(6-((R)-hydroxy((R)-1-isopropylpiperidin-3-yl)methyl)-4-methylpyridazin-3-yl)-5-(trifluoromethyl)phenol], the IC50 (Homo sapiens, Monocyte) is under 500 nM.

Where the note is “Homo sapiens, Monocyte”, `Cc1c(C(=O)C2CCCN(C)C2)nnc(-c2ccc(C(F)(F)F)cc2O)c1C` (centres unmarked) [Compound 2, (6-(2-hydroxy-4-(trifluoromethyl)phenyl)-4,5-dimethylpyridazin-3-yl)(1-methylpiperidin-3-yl)methanone] returned an IC50 of 500 to 3000 nM.

Take `Cc1cc(-c2ccc(C(F)(F)F)cc2O)nnc1C(O)C1CCCN(C)C1` (centres unmarked) [Compound 12, 2-(6-(hydroxy(1-methylpiperidin-3-yl)methyl)-5-methylpyridazin-3-yl)-5-(trifluoromethyl)phenol]: under “Homo sapiens, Monocyte”, the IC50 lay within 500 to 3000 nM.

Regarding `Cc1cc([C@H](O)[C@H]2CCCN(C)C2)nnc1-c1ccc(C(F)(F)F)cc1O` [Compound 17C, 2-(6-((R)-hydroxy((S)-1-methylpiperidin-3-yl)methyl)-4-methylpyridazin-3-yl)-5-(trifluoromethyl)phenol], for the setting “Homo sapiens, Monocyte”, the concentration for half-maximal inhibition (IC50) was under 500 nM.

`Cc1cc([C@@H](O)C2CN3CCC2CC3)nnc1-c1ccc(C(F)(F)F)cc1O` (stereo partly drawn) [Compound 28B, 2-(6-((1S)-hydroxy(quinuclidin-3-yl)methyl)-4-methylpyridazin-3-yl)-5-(trifluoromethyl)phenol]: the IC50 (Homo sapiens, Monocyte) lay within 500 to 3000 nM.

Molecule `CN1CCC[C@@H]([C@@H](O)c2nnc(-c3ccc(C(F)(F)F)cc3O)c3c2CCC3)C1` (racemic) [Compound 43B, 2-(4-((R/S)-hydroxy((R/S)-1-methylpiperidin-3-yl)methyl)-6,7-dihydro-5H-cyclopenta[d]pyridazin-1-yl)-5-(trifluoromethyl)phenol] had an IC50 of 500 to 3000 nM.

In the case of `Cc1cc([C@H](O)[C@@H]2CCCN(C3CC3)C2)nnc1-c1ccc(C(F)(F)F)cc1O` [Compound 25, 2-(6-((R)-((R)-1-cyclopropylpiperidin-3-yl)(hydroxy)methyl)-4-methylpyridazin-3-yl)-5-(trifluoromethyl)phenol], the IC50 (Homo sapiens, Monocyte) was under 500 nM. On the same count and under the same terms, with `COC(c1nnc(-c2ccc(C(F)(F)F)cc2O)c(C)c1C)C1CCCN(C)C1` (centres unmarked) [Compound 6, 2-(6-(methoxy(1-methylpiperidin-3-yl)methyl)-4,5-dimethylpyridazin-3-yl)-5-(trifluoromethyl)phenol] the figure was 500 to 3000 nM.

(Values after patent US20230295113A1, “NLRP3 MODULATORS” (ZOMAGEN BIOSCIENCES LTD, priority 2022, published 2023).)
